Test results reported in ChEMBL document CHEMBL1156251, “Structure--activity relationships of polymyxin antibiotics” (J Med Chem, 2010).
≈ marks a conversion by molar mass, not a printed value. Where “and” joins values, the source holds several entries; their conditions need not be identical. Equal entries are not always repeated. Where a SMILES comes first, the peptide text is derived from it. Bridges are numbered along the chain shown (N, C = ends). [ ]: non-standard residue; d: D form. The star is where a group is joined. Heptanoyl(6-Me) = CC(C)CCCCC(=O)*; Nonanoyl = CCCCCCCCC(=O)*; Octanoyl = CCCCCCCC(=O)*; Dab = NCC[C@H](N)C(=O)O

Experiments:
Klebsiella pneumoniae = assay: Antimicrobial activity against Klebsiella pneumoniae; assay type: functional
Escherichia coli = assay: Antimicrobial activity against Escherichia coli; assay type: functional
Lipopolysaccharide (LPS) = assay: Displacement of dansyl-PMB from LPS by isothermal titration calorimetry
Pseudomonas aeruginosa = assay: Antimicrobial activity against Pseudomonas aeruginosa; assay type: functional, organism-based
Salmonella enterica = assay: Antimicrobial activity against Salmonella enterica; assay type: functional

Structure (SMILES) | MIC (Klebsiella pneumoniae) [µg/mL] | MIC (Escherichia coli) | IC50 (Lipopolysaccharide (LPS)) | MIC (Pseudomonas aeruginosa) [µM] | MIC (Salmonella enterica) [µM]
CCC(C)CCCCC(=O)N[C@@H](CC/N=C/c1ccccc1)C(=O)N[C@H](C(=O)N[C@@H](CCN)C(=O)N[C@H]1CCNC(=O)[C@H]([C@@H](C)O)NC(=O)[C@H](CC/N=C/c2ccccc2)NC(=O)[C@H](CC/N=C/c2ccccc2)NC(=O)[C@H](CC(C)C)NC(=O)[C@@H](CC(C)C)NC(=O)[C@H](CC/N=C/c2ccccc2)NC1=O)[C@@H](C)O (some centres not stated) | 26 (≈ 17.1 µM) | 0.08 µg/mL |  |  | 
CCC(C)CCCCC(=O)N[C@@H](CCNCc1ccccc1)C(=O)N[C@H](C(=O)N[C@@H](CCN)C(=O)N[C@H]1CCNC(=O)[C@H]([C@@H](C)O)NC(=O)[C@H](CCNCc2ccccc2)NC(=O)[C@H](CCNCc2ccccc2)NC(=O)[C@H](CC(C)C)NC(=O)[C@@H](Cc2ccccc2)NC(=O)[C@H](CCNCc2ccccc2)NC1=O)[C@@H](C)O (some centres not stated) | 1.3 (≈ 0.831 µM) | 5 µg/mL |  |  | 
CCCCCCCC(=O)N[C@@H](CCN)C(=O)N[C@H](C(=O)N[C@@H](CCN)C(=O)N[C@H]1CCNC(=O)[C@H]([C@@H](C)O)NC(=O)[C@H](CCN)NC(=O)[C@H](CCN)NC(=O)CNC(=O)[C@@H](Cc2ccccc2)NC(=O)[C@H](CCN)NC1=O)[C@@H](C)O |  | 1 µM | 11 µM | 2 (≈ 2.27 µg/mL) | 2 (≈ 2.27 µg/mL)
CCCCCCCC(=O)N[C@@H](CCN)C(=O)N[C@H](C(=O)N[C@@H](CCN)C(=O)N[C@H]1CCNC(=O)[C@H](C)NC(=O)[C@H](CCN)NC(=O)[C@H](CCN)NC(=O)[C@H](CC(C)C)NC(=O)[C@@H](Cc2ccccc2)NC(=O)[C@H](CCN)NC1=O)[C@@H](C)O (Octanoyl-[Dab]T[Dab][Dab][Dab][dF]L[Dab][Dab]A; lactam 4-C) |  | 2 µM | 5 µM | 1 (≈ 1.16 µg/mL) | 1 (≈ 1.16 µg/mL)
CCC(C)CCCCC(=O)N[C@@H](CC/N=C/c1ccc(O)c(OC)c1)C(=O)N[C@@H](C(=O)N[C@@H](CCN)C(=O)N[C@H]1CCNC(=O)[C@@H]([C@@H](C)O)NC(=O)[C@H](CC/N=C/c2ccc(O)c(OC)c2)NC(=O)[C@H](CC/N=C/c2ccc(O)c(OC)c2)NC(=O)[C@H](CC(C)C)NC(=O)[C@@H](Cc2ccccc2)NC(=O)[C@H](CC/N=C/c2ccc(O)c(OC)c2)NC1=O)[C@@H](C)O (some centres not stated) | 26 (≈ 14.9 µM) |  |  |  | 
CC(C)C[C@@H]1NC(=O)[C@@H](Cc2ccccc2)NC(=O)[C@H](CCN)NC(=O)[C@@H](NC(=O)[C@H](CCN)NC(=O)[C@@H](NC(=O)[C@H](CO)NC(=O)O)[C@@H](C)O)CCNC(=O)[C@H]([C@@H](C)O)NC(=O)[C@H](CCN)NC(=O)[C@H](CCN)NC1=O [DESFA-[SER1]POLYMYXIN B] |  | 64 µM | >= 32 nmol/ml | 1 (≈ 1.09 µg/mL) | 64 (≈ 70 µg/mL)
CCC(C)CCCCC(=O)N[C@@H](CC/N=C/c1ccccc1)C(=O)N[C@H](C(=O)N[C@@H](CCN)C(=O)N[C@H]1CCNC(=O)[C@H]([C@@H](C)O)NC(=O)[C@H](CC/N=C/c2ccccc2)NC(=O)[C@H](CC/N=C/c2ccccc2)NC(=O)[C@H](CC(C)C)NC(=O)[C@@H](Cc2ccccc2)NC(=O)[C@H](CC/N=C/c2ccccc2)NC1=O)[C@@H](C)O (some centres not stated) | 26 (≈ 16.7 µM) |  |  |  | 
CC(C)CCCCC(=O)N[C@@H](CCN)C(=O)N[C@H](C(=O)N[C@@H](CCN)C(=O)N[C@H]1CCNC(=O)[C@H]([C@@H](C)O)NC(=O)[C@H](CCN)NC(=O)[C@H](CCN)NC(=O)[C@H](CC(C)C)NC(=O)[C@@H](Cc2ccccc2)NC(=O)[C@H](CCN)NC1=O)[C@@H](C)O [POLYMYXIN B2] ({Heptanoyl(6-Me)}-[Dab]T[Dab][Dab][Dab][dF]L[Dab][Dab]T; lactam 4-C) |  | 1 µM | 9 µM | 1 (≈ 1.19 µg/mL) | 1 (≈ 1.19 µg/mL)
CC(C)C[C@@H]1NC(=O)[C@@H](Cc2ccccc2)NC(=O)[C@H](CCN)NC(=O)[C@@H](NC(=O)[C@H](CCN)NC(=O)[C@@H](NC(=O)[C@H](CCN)NC(=O)O)[C@@H](C)O)CCNC(=O)[C@H]([C@@H](C)O)NC(=O)[C@H](CCN)NC(=O)[C@H](CCN)NC1=O [DESFA-[DAB1]POLYMYXIN B] |  | 8 µM | 19 µM | 4 (≈ 4.43 µg/mL) | 16 (≈ 17.7 µg/mL)
CC(C)C[C@@H]1NC(=O)[C@@H](Cc2ccccc2)NC(=O)[C@H](CCN)NC(=O)[C@@H](NC(=O)[C@H](CCN)NC(=O)[C@@H](NC(=O)[C@H](Cc2ccccc2)NC(=O)O)[C@@H](C)O)CCNC(=O)[C@H]([C@@H](C)O)NC(=O)[C@H](CCN)NC(=O)[C@H](CCN)NC1=O [DESFA-[PHE1]POLYMYXIN B] |  | 8 µM | >= 32 nmol/ml | 16 (≈ 18.5 µg/mL) | 8 (≈ 9.23 µg/mL)
CCC(C)CCCCC(=O)N[C@@H](CC/N=C/c1ccc(O)cc1)C(=O)N[C@H](C(=O)N[C@@H](CCN)C(=O)N[C@H]1CCNC(=O)[C@H]([C@@H](C)O)NC(=O)[C@H](CC/N=C/c2ccc(O)cc2)NC(=O)[C@H](CC/N=C/c2ccc(O)cc2)NC(=O)[C@H](CC(C)C)NC(=O)[C@@H](Cc2ccccc2)NC(=O)[C@H](CC/N=C/c2ccc(O)cc2)NC1=O)[C@@H](C)O (some centres not stated) | 26 (≈ 16.1 µM) |  |  |  | 
CCC(C)CCC(O)CC(=O)N[C@@H](CCN)C(=O)N[C@H](C(=O)N[C@@H](CCN)C(=O)N[C@H]1CCNC(=O)[C@H]([C@@H](C)O)NC(=O)[C@H](CCN)NC(=O)[C@H](CCN)NC(=O)[C@H](CC(C)C)NC(=O)[C@@H](Cc2ccccc2)NC(=O)[C@H](CCN)NC1=O)[C@@H](C)O (some centres not stated) [POLYMYXIN B6] |  | 0.5 µM | 7 µM | 0.5 (≈ 0.61 µg/mL) | 0.5 (≈ 0.61 µg/mL)
CCCCCCCC(=O)N[C@@H](CCN)C(=O)N[C@H](C(=O)N[C@@H](CCN)C(=O)N[C@H]1CCNC(=O)[C@H]([C@@H](C)O)NC(=O)[C@H](CCN)NC(=O)[C@H](CCN)NC(=O)[C@H](CC(C)C)NC(=O)CNC(=O)[C@H](CCN)NC1=O)[C@@H](C)O (Octanoyl-[Dab]T[Dab][Dab][Dab]GL[Dab][Dab]T; lactam 4-C) |  | 2 µM | 11 µM | 1 (≈ 1.1 µg/mL) | 16 (≈ 17.6 µg/mL)
CC(C)C[C@@H]1NC(=O)[C@@H](Cc2ccccc2)NC(=O)[C@H](CCN)NC(=O)[C@@H](N)CCNC(=O)[C@H]([C@@H](C)O)NC(=O)[C@H](CCN)NC(=O)[C@H](CCN)NC1=O [POLYMYXIN B HEPTAPEPTIDE] |  | ≥ 256 µM and ≥ 300 µg/mL | >= 32 nmol/ml | 128 (≈ 97.5 µg/mL) | ≥ 256
CC(C)C[C@@H]1NC(=O)[C@@H](Cc2ccccc2)NC(=O)[C@H](CCN)NC(=O)[C@@H](NC(=O)[C@H](CCN)NC(=O)[C@@H](NC(=O)[C@H](C)NC(=O)O)[C@@H](C)O)CCNC(=O)[C@H]([C@@H](C)O)NC(=O)[C@H](CCN)NC(=O)[C@H](CCN)NC1=O [DESFA-[ALA1]POLYMYXIN B] |  | 32 µM | >= 32 nmol/ml | 32 (≈ 34.5 µg/mL) | 64 (≈ 69 µg/mL)
CCCCCCCC(=O)N[C@@H](CCN)C(=O)N[C@H](C(=O)N[C@@H](CCN)C(=O)N[C@H]1CCNC(=O)[C@H]([C@@H](C)O)NC(=O)[C@H](CCN)NC(=O)[C@H](CCN)NC(=O)[C@H](CC(C)C)NC(=O)[C@H](Cc2ccccc2)NC(=O)[C@H](CCN)NC1=O)[C@@H](C)O |  | 2 µM | 10 µM | 2 (≈ 2.38 µg/mL) | 2 (≈ 2.38 µg/mL)
CCCCCCCC(=O)N[C@@H](CCN)C(=O)N[C@H](C(=O)N[C@@H](CCN)C(=O)N[C@H]1CCNC(=O)[C@H]([C@@H](C)O)NC(=O)[C@H](CCN)NC(=O)[C@H](CCN)NC(=O)CNC(=O)CNC(=O)[C@H](CCN)NC1=O)[C@@H](C)O (Octanoyl-[Dab]T[Dab][Dab][Dab]GG[Dab][Dab]T; lactam 4-C) |  | 256 µM | 20 µM | ≥ 512 | ≥ 512
CCCCCCCC(=O)N[C@@H](CCN)C(=O)N[C@H](C(=O)N[C@@H](CCN)C(=O)N[C@H]1CCNC(=O)[C@H]([C@@H](C)O)NC(=O)[C@H](C)NC(=O)[C@H](CCN)NC(=O)[C@H](CC(C)C)NC(=O)[C@@H](Cc2ccccc2)NC(=O)[C@H](CCN)NC1=O)[C@@H](C)O (Octanoyl-[Dab]T[Dab][Dab][Dab][dF]L[Dab]AT; lactam 4-C) |  | 4 µM | 19 µM | 2 (≈ 2.32 µg/mL) | 4 (≈ 4.64 µg/mL)
CCCCCCCCC(=O)N[C@@H](CCN)C(=O)N[C@H](C(=O)N[C@@H](CCN)C(=O)N[C@H]1CCNC(=O)[C@H]([C@@H](C)O)NC(=O)[C@H](CCN)NC(=O)[C@H](CCN)NC(=O)[C@H](CC(C)C)NC(=O)[C@@H](Cc2ccccc2)NC(=O)[C@H](CCN)NC1=O)[C@@H](C)O [POLYMYXIN B5] (Nonanoyl-[Dab]T[Dab][Dab][Dab][dF]L[Dab][Dab]T; lactam 4-C) |  | 1 µM | 6 µM | 1 (≈ 1.2 µg/mL) | 1 (≈ 1.2 µg/mL)
CC(C)C[C@@H]1NC(=O)[C@@H](Cc2ccccc2)NC(=O)[C@H](CCN)NC(=O)[C@@H](NC(=O)[C@H](CCN)NC(=O)[C@@H](NC(=O)[C@H](CCN)NC(=O)[C@@H](CCN)NC(=O)[C@@H](N)CCN)[C@@H](C)O)CCNC(=O)[C@H]([C@@H](C)O)NC(=O)[C@H](CCN)NC(=O)[C@H](CCN)NC1=O [DESFA-[DAB-DAB-DAB1]POLYMYXIN B] |  | 8 µM | 3 µM | 0.5 (≈ 0.632 µg/mL) | 32 (≈ 40.4 µg/mL)
